Experimental data taken from publication PMC7277860, “Viridistratins A−C, Antimicrobial and Cytotoxic Benzo[j]fluoranthenes from Stromata of Annulohypoxylon viridistratum (Hypoxylaceae, Ascomycota)” (Biomolecules, 2020).

Assay: Cytotoxicity assay (MTT)
Format: cell-based, human
Conditions: for IC50: 5 days
Method: Compounds 1−5 were dissolved as described in the previous section. The cytotoxicity assay was initially performed against the cell lines L929 (mouse fibroblasts), as well as KB 3.1 (human papillomavirus-related endocervical adenocarcinoma), as described previously. A detailed protocol, as well as sources of the cell lines, is given in the Supporting Information.
After incubating the cell lines with a serial dilution of the test compounds (final range: 37 to 0.6 × 10^−3 µg/mL) for five days, the cells were dyed using 3-(4,5-dimethyl-2-thiazolyl)-2,5-diphenyl-2H-tetrazolium bromide (MTT), which is only converted to its purple formazan derivative by living cells. Then, the intensity of the purple derivative in relation to cells without additive (set to 100% viability) for each concentration of a test compound was quantified. For this, the absorption at 595 nm was measured using a microplate reader to calculate the percentage of cell viability. From this, the half-maximum inhibitory concentration (IC50, in µM) was calculated.
If an inhibition of cell viability with an IC50 < 50 µM was observed, further cell lines were subjected to the test compounds: PC-3 (human prostate adenocarcinoma), SK-OV-3 (human ovary adenocarcinoma), MCF-7 (human breast adenocarcinoma), A431 (human squamous carcinoma) and A549 (human lung carcinoma).
Protocol: Cytotoxicity Assay
The ass ay w as co nducted i n 9 6-well flat-bottom mi crotiter plates using the parameters summarised i n Tabl e S 2 and as described in [S2].
Cell lines L929 and KB 3.1 were incubated at 37 °C under 10 % CO2 in Gibco™ DMEM medium (Thermo Fisher Scientific, Waltham, MA, USA) supplemented with 10 % FBS. A microtiter plate was filled with 120 µL of this suspension (50,000/mL) in each well.
Seperately, another microtiter plate was filled with 100 µL of growth medium in each well. Then, 50 µL of the test compound sol utions (1 mg/mL) were given to wells of the first column in two replicates (one compound per row). C ell s wi thout addi ti ves, Me O H, and MeOH: DMSO 9+1 were used as negative controls. Starting from the first column, 50 µL of the solutions were gradually transferred to the ne xt col umn, the conte nts thoroughl y mi xed, and 50 µ L transferred to the following column. This created a serial dilution of the test compounds r anging from 333 µg/mL to 1.9 ×10−3 µg/mL. The remai ni ng 50 µL after column twelve were discarded. From this microtiter plate, 60 µL of the sol utions from 111 µg/ mL to 1.9×10−3 µg/mL were given to the first plate containing 120 µL of the cel l suspens i ons (i.e. the hi ghest concentrati on 333 µg/mL was not used). T his resulted i n fi nal compound concent rati ons rangi ng from […]
After 5 days of incubation under the aforeme ntioned i ncubati on condi ti ons, the half maximum inhibitory concentrati ons (IC 50) were determined using a colorimetric tetrazolium dye MTT assay [S3].
For this, 20 µL of a 5 mg/mL solution of 3-( 4 ,5 -dimethyl-2-thi azo l yl)-2 ,5 -di phenyl -2H-tetrazolium bromide (MTT) w ere added to each well and incubated for two hours at 37 °C. Then, the microtiter plate was centrifuged (3,000 r p m, 5 mi n) and the supernat ant remo ved by ho l di ng the pl ate upsi de-do wn and gentle shaking. Afterwards, the wells were washed using 100 µL of phosph ate buffered saline (PBS).
The plate was again centrifuged and the supernatant removed as described before. Then, 100 µL of an isopropanol:HCl solution (1L i sopropanol+4 mL HCl 37 % w/v) were added to the wells. After i ncubati ng fo r 10 mi n at ambi ent te mperature, the a bso r pti o n of the well s at 595 nm was measured wi th an I nfi ni te ® 200 Pro microplate reader (TECAN, Männedorf, Schweiz).
The absorption values of the cells without additives were averaged and set to 100 % cell viability.
Then, t he me ans of absorption of the two compound replicates were set in relation to the blank media.
These percentage values were plotted a gainst the concentration range (37 µg/mL to 0.6×10 −3 µg/mL). […]

[1] = A431 human squamous carcinoma cells, A431 human squamous AC
[2] = A549 human lung carcinoma cells, A549 human lung carcinoma
[3] = MCF-7 human breast adenocarcinoma cells, MCF-7 human breast AC
[4] = PC-3 human prostate adenocarcinoma cells, PC-3 human prostate AC
[5] = SK-OV-3 human ovary adenocarcinoma cells, SK-OV-3 human ovary AC

Row | Compound | IC50 at 5 days [1] | IC50 at 5 days [2] | IC50 at 5 days [3] | IC50 at 5 days [4] | IC50 at 5 days [5] | IC50 (A431 human squamous AC) | IC50 (A549 human lung carcinoma) | IC50 (MCF-7 human breast AC) | IC50 (PC-3 human prostate AC) | IC50 (SK-OV-3 human ovary AC)
1 | Oc1cccc2c3c(ccc12)-c1ccc(O)c2c(O)ccc-3c12 [Compound 1, viridistratin A] | 8.7 µM | 20 µM | 9.7 µM | 23.7 µM | 56.7 µM | – | – | – | – | –
2 | COc1cccc2c3c(ccc12)-c1ccc(O)c2c(O)ccc-3c12 [Compound 2, viridistratin B] | 1.1 µM | 1.4 µM | 5.1 µM | 9.9 µM | 7.3 µM | – | – | – | – | –
3 | O=C1C[C@H]2C(=C3CCC(=O)c4c(O)ccc2c43)c2cccc(O)c21 [Compound 4, truncatone A] | – | – | – | – | – | 5.7 µM | 17 µM | 8.8 µM | 44 µM | 66 µM
4 | O=C1CCC(=O)c2c1c(O)cc1c2-c2ccc(O)c3c(O)ccc-1c23 [Compound 5, truncatone C] | 16.3 µM | 27.1 µM | 7.8 µM | 25.6 µM | 33.1 µM | – | – | – | – | –
